The values below come from US10494397B2, “Rebaudioside analogs” (PepsiCo, Inc., priority 2016, dated 2019).

Format in all cases: in vivo, human
One test relates to Tasters. Put plainly: Sensory evaluation of test material as a sweetener (taster panel, scale of 1 to 10). On the set-up: key: not observed or only minimally observed (−); highly observed (+++). The text has this:
Sample preparation protocol for testing material as a sweetener: Tasters wore noseclips and were blinded to the identity of the test material. Tasters sampled 400 ppm Rebaudioside A and 6.5 Brix sucrose prior to the test material. Reb A 400 ppm was assigned a 5 on the scale of 1 to 10 as shown in FIG. 8 and sucrose (6.5%) was assigned a 10 on the same scale. Tasters were asked to rinse their mouths 5 times with water between tasting each sample. Tasters were then given the test article and asked to rank the test article for sweetness on the noted scale. Tasters were also asked to provide comments about bitterness, linger, flavors, and any other perceptions.
Numerical scores from all tasters were averaged and, taken together with comments regarding sweet quality, bitterness and off-tastes, converted into the symbols “−,” “+,” “++,” and “+++” to indicate whether a given characteristic was not observed or only minimally observed (−) or highly observed (+++). For example, a sample having a “−” in both sweet intensity and bitterness should be understood as a sample having minimal or no sweetness and minimal or no bitter flavor. By contrast, a sample having a “+++” in both sweet intensity and bitterness should be understood as a sample having highly observed sweet intensity and bitterness.
Preparation of Reb A in this experiment: Prepare 400 ppm Reb A in water (pH=7): 40 mg of Rebaudioside A was dissolved with stirring in 100 ml of water at room temperature.
Preparation of Sucrose in this experiment: Prepare 6.5% Sucrose in water (pH=7): weight 6.5 gr of Sucrose and dissolve it in 93.5 gr water (total 100 gr)
• Sweet quality was based upon a temporal profile (sweet onset, linger) and attributes such as syrupy, round, clean.

Test [1] concerns Trained Sensory panelists. As to the kind of experiment: Sucrose Equivalence Value, paired comparison with 1.5% sucrose. To be noted: 25 ppm in aqueous phosphoric acid (pH 3.1), room temperature; p<0.0001. The text has this: (§1) Trained Sensory panelists (n=25, 3 evaluations each) evaluated Reb B Galactoside in aqueous phosphoric acid (pH 3.1) at room temperature. Rebaudioside B galactoside is not currently approved for use in food or beverages in the United States. Therefore, every person who tasted the samples signed an informed consent form provided by PepsiCo Scientific Affairs before tasting samples. Participation in the tests was completely voluntary. Panelists who chose to participate could choose to stop participation at any time. In order for a test ingredient to be considered an enhancer, it must not be considered a sweetener.

Test [2] relates to Trained Sensory panelists. As to the kind of experiment: Sweet enhancement ranking test (4 samples ranked from least sweet to most sweet).
Description: as §1, with “Panelists were asked” for “In order for a test ingredient”, “rank 4 samples from least sweet to most sweet, with 1=least sweet and 4=most sweet As shown in FIGS. 1-3, Enhancement of Reb A, high-fructose corn syrup and sucrose were observed.” for “be considered an enhancer, it must not be considered a sweetener.”

With `C=C1C[C@@]23CC[C@H]4[C@@](C)(CCC[C@@]4(C)C(=O)O[C@@H]4O[C@H](CO)[C@H](O)[C@H](O)[C@H]4O)[C@@H]2CC[C@]1(O[C@@H]1O[C@H](CO)[C@@H](O)[C@H](O[C@@H]2O[C@H](CO)[C@@H](O)[C@H](O)[C@H]2O)[C@H]1O[C@@H]1O[C@H](CO)[C@@H](O)[C@H](O)[C@H]1O)C3` [Compound 7D, Rebaudioside B Galactoside], the “Sweet Intensity” value with Tasters (averaged taster scores, scale 1 to 10 with Reb A 400 ppm = 5 and sucrose 6.5% = 10, noseclips, blinded) was “+++”. Further, the Bitterness entry with Tasters (taster comments and scores converted into symbols) is “−”. In addition, in test [1], the “Sucrose Equivalence Value (sweetness compared with 1.5% sucrose)” value is reported as under 1.5 % sucrose. Also, the “Enhancement of sweetness of High-Fructose Corn Syrup (HFCS)” value in test [2] (25 ppm added to HFCS, FIG. 2) was “enhances the sweetness”. In test [2] (25 ppm added to Rebaudioside A, FIG. 1), the “Enhancement of sweetness of Rebaudioside A” value is given as “enhances the sweetness”. In test [2] (25 ppm added to sucrose, FIG. 3), the “Enhancement of sweetness of sucrose” value was “enhances the sweetness”.
